Patent publication US20100168102A9, “Amide Derivatives as Kinase Inhibitors” (Devgen NV, priority 2005, published 2010)
Where a name gives a salt, the structure may show the parent alone. Read-outs that look alike come from different tables or passages of the source.

Key:
[1] = target: T1, human ROCKα/ROCKII mix (Homo sapiens, UniProt O75116); assay: Biochemical assay for ROCK (fluorescence polarization, ROCK IMAP Kit)
T1 construct: purchased Upstate Biotechnology 14-451

[2] = target: T2, PKC epsilon (Homo sapiens, UniProt Q02156); assay: Biochemical assay for PKC epsilon (fluorescence polarization, Protein Kinase C Assay Kit, Red); conditions: read-out: IC50 μM PKCε
T2 construct: purchased Invitrogen P2282
T2 sequence (Q02156 1-737): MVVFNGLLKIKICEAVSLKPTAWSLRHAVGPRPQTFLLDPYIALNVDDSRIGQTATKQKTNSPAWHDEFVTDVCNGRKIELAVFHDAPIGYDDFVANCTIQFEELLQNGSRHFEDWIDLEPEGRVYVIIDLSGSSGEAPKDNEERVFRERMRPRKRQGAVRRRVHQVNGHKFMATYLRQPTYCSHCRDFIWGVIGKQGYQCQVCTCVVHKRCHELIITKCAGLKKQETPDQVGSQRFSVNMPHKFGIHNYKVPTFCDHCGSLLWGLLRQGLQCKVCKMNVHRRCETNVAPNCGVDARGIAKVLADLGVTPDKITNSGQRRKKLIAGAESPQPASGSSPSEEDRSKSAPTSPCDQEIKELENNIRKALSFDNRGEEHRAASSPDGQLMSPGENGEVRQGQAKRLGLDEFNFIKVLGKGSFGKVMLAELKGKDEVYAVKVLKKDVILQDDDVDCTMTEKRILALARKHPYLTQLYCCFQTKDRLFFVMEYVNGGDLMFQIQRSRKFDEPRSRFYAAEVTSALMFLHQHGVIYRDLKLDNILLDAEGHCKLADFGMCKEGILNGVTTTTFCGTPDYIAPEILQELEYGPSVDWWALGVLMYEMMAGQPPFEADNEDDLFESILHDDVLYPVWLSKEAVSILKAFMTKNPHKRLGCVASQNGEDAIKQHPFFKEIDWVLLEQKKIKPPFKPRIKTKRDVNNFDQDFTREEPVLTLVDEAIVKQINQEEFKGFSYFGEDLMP
Summary of the method: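 PKC epsilon at 10 ng/ml final was preincubated 30 min at room temperature with compound in HEPES pH 7.4 with DTT and Triton X-100. ATP/protein substrate was then added in buffer with MgCl2 and CaCl2 for 80 min. The reaction was stopped with EDTA, phosphorylation was detected by fluorescence polarization with rhodamine tracer and anti-phosphoserine antibody, and IC50 values came from curve fits.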

[3] = compounds of Formula XIV, Table 3
[4] = Table 2, compounds of Formula XIII

T1 sequence (O75116 11-552 limits assumed): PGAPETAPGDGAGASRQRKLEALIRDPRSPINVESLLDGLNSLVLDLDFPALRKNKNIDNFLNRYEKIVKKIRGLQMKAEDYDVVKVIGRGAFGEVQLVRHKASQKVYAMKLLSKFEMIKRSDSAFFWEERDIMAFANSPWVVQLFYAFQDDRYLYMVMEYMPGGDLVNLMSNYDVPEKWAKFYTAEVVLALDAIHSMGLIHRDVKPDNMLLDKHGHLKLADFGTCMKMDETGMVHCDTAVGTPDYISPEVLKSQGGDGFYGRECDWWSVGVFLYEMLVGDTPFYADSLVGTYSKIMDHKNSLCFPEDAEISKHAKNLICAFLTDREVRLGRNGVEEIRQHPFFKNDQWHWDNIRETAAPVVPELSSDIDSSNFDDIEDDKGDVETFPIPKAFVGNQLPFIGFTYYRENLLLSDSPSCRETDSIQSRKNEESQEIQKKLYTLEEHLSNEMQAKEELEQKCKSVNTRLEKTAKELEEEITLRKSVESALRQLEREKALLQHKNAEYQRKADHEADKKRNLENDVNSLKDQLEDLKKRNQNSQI

**Q.** For `NC(CC(=O)NCc1ccccc1Br)c1ccc(C(=O)Nc2ccncc2)cc1` (stereo not shown) [Compound 259, 4-[1-Amino-2-(2-bromo-benzylcarbamoyl)-ethyl]-N-pyridin-4-yl-benzamide], which IC50 [1, 3] is on record?
**A.** 0.05 to 0.5 µM

**Q.** What about the IC50 [2, 3] of the same molecule?
**A.** 0.5 to 5 µM

**Q.** How did the IC50 [1, 4] turn out when `COc1cccc2cc(C(=O)NCC(N)c3ccc(C(=O)Nc4ccncc4)cc3)oc12` (stereo not shown) [Compound 133, 7-Methoxy-benzofuran-2-carboxylic acid {2-amino-2-[4-(pyridin-4-ylcarbamoyl)-phenyl]-ethyl}-amide] was run?
**A.** 0.05 to 0.5 µM

**Q.** What about the IC50 [2, 4] of the same molecule?
**A.** 5 to 50 µM

**Q.** How did the IC50 [1, 4] turn out when `CC(=O)Nc1ccc(C(=O)NCC(N)c2ccc(C(=O)Nc3ccncc3)cc2)cc1` (stereo not shown) [Compound 83, 4-[1-amino-2-(4-acetylamino-benzoylamino)-ethyl]-N-pyridin-4-yl-benzamide] was run?
**A.** 0.5 to 5 µM

**Q.** What about the IC50 [2, 4] of the same molecule?
**A.** 5 to 50 µM

**Q.** Which results are given for `COc1ccccc1CC(=O)NCC(N)c1ccc(C(=O)Nc2ccncc2)cc1` (stereo not shown) [Compound 138, 4-{1-amino-2-[2-(2-methoxy-phenyl)-acetylamino]-ethyl}-N-pyridin-4-yl-benzamide]?
**A.** IC50 [1, 4]: 0.5 to 5 µM; IC50 [2, 4]: 5 to 50 µM

**Q.** `NC(CNC(=O)C1(c2ccccc2)CC1)c1ccc(C(=O)Nc2ccncc2)cc1` (stereo not shown) [Compound 137, 4-{1-Amino-2-[(1-phenyl-cyclopropanecarbonyl)-amino]-ethyl}-N-pyridin-4-yl-benzamide] was tested. Which IC50 [1, 4] did it give?
**A.** 0.5 to 5 µM

**Q.** What about the IC50 [2, 4] of the same molecule?
**A.** 0.05 to 0.5 µM

**Q.** What does the source list for `CN(CC(N)c1ccc(C(=O)Nc2ccncc2)cc1)C(=O)C1(c2ccc(F)c(F)c2)CCCC1` (stereo not shown) [Compound 488, 4-(1-Amino-2-{[1-(3,4-difluoro-phenyl)-cyclopentanecarbonyl]-methyl-amino}-ethyl)-N-pyridin-4-yl-benzamide]?
**A.** IC50 [1]: 0.5 to 5 µM; IC50 [2]: 0.5 to 5 µM

**Q.** How did the IC50 [1, 3] turn out when `NC(CC(=O)NC1CCCc2ccccc21)c1ccc(C(=O)Nc2ccncc2)cc1` (stereo not shown) [Compound 223, 4-[1-Amino-2-(1,2,3,4-tetrahydro-naphtalen-1-ylcarbamoyl)-ethyl]-N-pyridin-4-yl-benzamide] was run?
**A.** 0.05 to 0.5 µM

**Q.** What about the IC50 [2, 3] of the same molecule?
**A.** 0.05 to 0.5 µM

**Q.** Which results are given for `NC(CC(=O)NCc1ccc(C(F)(F)F)cc1)c1ccc(C(=O)Nc2ccncc2)cc1` (stereo not shown) [Compound 265, 4-[1-Amino-2-(4-trifluoromethyl-benzylcarbamoyl)-ethyl]-N-pyridin-4-yl-benzamide]?
**A.** IC50 [1, 3]: 0.05 to 0.5 µM; IC50 [2, 3]: 0.5 to 5 µM

**Q.** Which results are given for `NC(CNC(=O)CC1Cc2ccccc2C1)c1ccc(C(=O)Nc2ccncc2)cc1` (stereo not shown) [Compound 49, 4-[1-Amino-2-(2-indan-2-yl-acetylamino)-ethyl]-N-pyridin-4-yl-benzamide]?
**A.** IC50 [1, 4]: 0.05 to 0.5 µM; IC50 [2, 4]: 0.5 to 5 µM

**Q.** What does the source list for `NC(CNC(=O)c1ccncc1)c1ccc(C(=O)Nc2ccncc2)cc1` (stereo not shown) [Compound 104, N-{2-Amino-2-[4-(pyridin-4-ylcarbamoyl)-phenyl]-ethyl}-isonicotinamide]?
**A.** IC50 [1, 4]: 0.5 to 5 µM; IC50 [2, 4]: 5 to 50 µM

**Q.** How did the IC50 [1, 3] turn out when `CCNC(=O)CC(N)c1ccc(C(=O)Nc2ccncc2)cc1` (stereo not shown) [Compound 169] was run?
**A.** 0.05 to 0.5 µM

**Q.** What about the IC50 [2, 3] of the same molecule?
**A.** 0.5 to 5 µM

**Q.** `CN(CC(N)c1ccc(C(=O)Nc2ccncc2)cc1)C(=O)Cc1ccc(Cl)c(Cl)c1` (stereo not shown) [Compound 491, 4-(1-Amino-2-{[2-(3,4-dichloro-phenyl)-acetyl]-methyl-amino}-ethyl)-N-pyridin-4-yl-benzamide] was tested. Which IC50 [1] did it give?
**A.** 0.5 to 5 µM

**Q.** What about the IC50 [2] of the same molecule?
**A.** 5 to 50 µM

**Q.** Which results are given for `N[C@@H](CC(=O)N[C@@H]1CCCc2ccccc21)c1ccc(C(=O)Nc2ccncc2)cc1` [Compound 374, 4-{(S)-1-Amino-2-[(R)-(1,2,3,4-tetrahydro-naphthalen-1-yl)carbamoyl]-ethyl}-N-pyridin-4-yl-benzamide dihydrochloric acid salt]?
**A.** IC50 [1]: 0.05 to 0.5 µM; IC50 [2]: 0.5 to 5 µM

**Q.** How did the IC50 [1, 3] turn out when `COc1cccc(CCNC(=O)CC(N)c2ccc(C(=O)Nc3ccncc3)cc2)c1` (stereo not shown) [Compound 289, 4-{1-Amino-2-[2-(3-methoxy-phenyl)-ethylcarbamoyl]-ethyl}-N-pyridin-4-yl-benzamide] was run?
**A.** 0.05 to 0.5 µM

**Q.** And the IC50 [2, 3]?
**A.** 0.5 to 5 µM

**Q.** Which IC50 [1, 4] does the source give for `NC(CNC(=O)C1CCCO1)c1ccc(C(=O)Nc2ccncc2)cc1` (stereo not shown) [Compound 66, Tetrahydro-furan-2-carboxylic acid {2-amino-2-[4-(pyridin-4-ylcarbamoyl)-phenyl]-ethyl}-amide] here?
**A.** 0.5 to 5 µM

**Q.** And the IC50 [2, 4]?
**A.** 5 to 50 µM

**Q.** How did the IC50 [1] turn out when `CN(CC(N)c1ccc(C(=O)Nc2ccncc2)cc1)C(=O)C1(c2ccc(F)c(Cl)c2)CC1` (stereo not shown) [Compound 506, 4-(1-Amino-2-{[1-(3-chloro-4-fluoro-phenyl)-cyclopropanecarbonyl]-methyl-amino}-ethyl)-N-pyridin-4-yl-benzamide] was run?
**A.** 0.5 to 5 µM

**Q.** And the IC50 [2]?
**A.** 5 to 50 µM

**Q.** Which results are given for `NC(CNC(=O)c1ccc(Cl)cc1)c1ccc(C(=O)Nc2ccncc2)cc1` (stereo not shown) [Compound 90, 4-[1-amino-2-(4-chloro-benzoylamino)-ethyl]-N-pyridin-4-yl-benzamide]?
**A.** IC50 [1, 4]: 0.5 to 5 µM; IC50 [2, 4]: 5 to 50 µM

**Q.** Which IC50 [1] does the source give for `CN(CC(N)c1ccc(C(=O)Nc2ccncc2)cc1)C(=O)C1(c2ccc(Cl)c(Cl)c2)CCC1` (stereo not shown) [Compound 494, 4-(1-Amino-2-{[1-(3,4-dichloro-phenyl)-cyclobutanecarbonyl]-methyl-amino}-ethyl)-N-pyridin-4-yl-benzamide] here?
**A.** 0.5 to 5 µM

**Q.** What about the IC50 [2] of the same molecule?
**A.** 5 to 50 µM

**Q.** How did the IC50 [1, 4] turn out when `Cn1cccc1C(=O)NCC(N)c1ccc(C(=O)Nc2ccncc2)cc1` (stereo not shown) [Compound 121, 1-Methyl-1H-pyrrole-2-carboxylic acid {2-amino-2-[4-(pyridin-4-ylcarbamoyl)-phenyl]-ethyl}-amide] was run?
**A.** 0.5 to 5 µM

**Q.** And the IC50 [2, 4]?
**A.** 0.5 to 5 µM

**Q.** For `NC(CNC(=O)c1ccc2c(c1)OCO2)c1ccc(C(=O)Nc2ccncc2)cc1` (stereo not shown) [Compound 80, Benzo[1,3]dioxole-5-carboxylic acid {2-amino-2-[4-(pyridin-4-ylcarbamoyl)-phenyl]-ethyl}amide], which IC50 [1, 4] is on record?
**A.** 0.05 to 0.5 µM

**Q.** What about the IC50 [2, 4] of the same molecule?
**A.** 5 to 50 µM

**Q.** For `CS(=O)(=O)c1cccc(C(=O)NCC(N)c2ccc(C(=O)Nc3ccncc3)cc2)c1` (stereo not shown) [Compound 96, 4-[1-amino-2-(3-methanesulfonyl-benzoylamino)-ethyl]-N-pyridin-4-yl-benzamide], which IC50 [1, 4] is on record?
**A.** 0.5 to 5 µM

**Q.** And the IC50 [2, 4]?
**A.** 0.5 to 5 µM

**Q.** How did the IC50 [1, 4] turn out when `NC(CNC(=O)CCc1cccnc1)c1ccc(C(=O)Nc2ccncc2)cc1` (stereo not shown) [Compound 166, 4-[1-Amino-2-(3-pyridin-3-yl-propionylamino)-ethyl]-N-pyridin-4-yl-benzamide] was run?
**A.** 0.5 to 5 µM

**Q.** What about the IC50 [2, 4] of the same molecule?
**A.** 5 to 50 µM

**Q.** What does the source list for `CC(C)(C(=O)NC[C@H](N)c1ccc(C(=O)Nc2ccncc2)cc1)c1ccc(Cl)cc1` [Compound 400, 4-{(R)-1-Amino-2-[2-(4-chloro-phenyl)-2-methyl-propionylamino]-ethyl}-N-pyridin-4-yl-benzamide]?
**A.** IC50 [1]: 0.5 to 5 µM; IC50 [2]: 0.5 to 5 µM

**Q.** `CC(C)(C(=S)NCC(N)c1ccc(C(=O)Nc2ccncc2)cc1)c1ccc(F)cc1` (stereo not shown) [Compound 419, 4-{1-Amino-2-[2-(4-fluoro-phenyl)-2-methyl-thiopropionylamino]-ethyl}-N pyridin-4-yl-benzamide dihydrochloric acid salt] was tested. Which IC50 [1] did it give?
**A.** 0.05 to 0.5 µM

**Q.** And the IC50 [2]?
**A.** < 0.05 µM

**Q.** Which IC50 [1, 4] does the source give for `NC(CNC(=O)Cc1c[nH]c2ccccc12)c1ccc(C(=O)Nc2ccncc2)cc1` (stereo not shown) [Compound 152, 4-[1-Amino-2-(2-1H-indol-3-yl-acetylamino)-ethyl]-N-pyridin-4-yl-benzamide] here?
**A.** 0.05 to 0.5 µM

**Q.** What about the IC50 [2, 4] of the same molecule?
**A.** 0.5 to 5 µM

**Q.** What does the source list for `NC(CC(=O)NC1Cc2ccccc2C1)c1ccc(C(=O)Nc2ccncc2)cc1` (stereo not shown) [Compound 280, 4-[1-amino-2-(indan-2-ylcarbamoyl)-ethyl]-N-pyridin-4-yl-benzamide]?
**A.** IC50 [1, 3]: 0.05 to 0.5 µM; IC50 [2, 3]: 0.5 to 5 µM

**Q.** What does the source list for “4-{1-Amino-2-[(furan-2- ylmethyl)-carbamoyl]-ethyl}- N-pyridin-4-yl-benzamide [Compound 278]”?
**A.** IC50 [1, 3]: 0.05 to 0.5 µM; IC50 [2, 3]: 0.5 to 5 µM

**Q.** With `Cc1cccc(CC(=O)NCC(N)c2ccc(C(=O)Nc3ccncc3)cc2)c1` (stereo not shown) [Compound 143, 4-{1-Amino-2-[2-(3-methyl-phenyl)-acetylamino]-ethyl}-N-pyridin-4-yl-benzamide] as the molecule, how does the IC50 [1, 4] read?
**A.** 0.05 to 0.5 µM

**Q.** And the IC50 [2, 4]?
**A.** 0.5 to 5 µM

**Q.** With `NC(CNC(=O)C1CCSc2ccccc21)c1ccc(C(=O)Nc2ccncc2)cc1` (stereo not shown) [Compound 391, Thiochroman-4-carboxylic acid {2-amino-2-[4-(pyridin-4-ylcarbamoyl)-phenyl]-ethyl}-amide] as the molecule, how does the IC50 [1, 4] read?
**A.** 0.05 to 0.5 µM

**Q.** What about the IC50 [2, 4] of the same molecule?
**A.** 0.05 to 0.5 µM

**Q.** Which IC50 [1, 3] does the source give for `CN(C)CCNC(=O)CC(N)c1ccc(C(=O)Nc2ccncc2)cc1` (stereo not shown) [Compound 174, 4-[1-amino-2-(2-dimethylamino-ethylcarbamoyl)-ethyl]-N-pyridin-4-yl-benzamide] here?
**A.** 0.05 to 0.5 µM

**Q.** And the IC50 [2, 3]?
**A.** 0.5 to 5 µM

**Q.** What does the source list for “4-(1-Amino-2-{[2-(2-fluoro- phenyl)-acetyl]-methyl- amino}-ethyl)- N-pyridin-4-yl-benzamide [Compound 466]”?
**A.** IC50 [1]: 0.5 to 5 µM; IC50 [2]: 5 to 50 µM

**Q.** Which results are given for “4-[1-Amino-2-(1-(S)-p-tolyl- propylcarbamoyl)-ethyl]-N- pyridin-4-yl-benzamide [Compound 219]”?
**A.** IC50 [1, 3]: 0.05 to 0.5 µM; IC50 [2, 3]: 0.5 to 5 µM
